These results are taken from PubChem BioAssay AID1845208 (Molecular Pharmacology Branch, DTP, NCI, 2023).

SMILES strings stand for the structures. Where “and” joins values, the source holds several entries; their conditions need not be identical. Equal entries are not always repeated. Calls of active or inactive are those of the source. How the source made its calls: active means viability on the fitted dose curve at most 10% of control; inactive means the rest.

The subject of the assay is NCI-H196 SCLC complex tumor spheroid viability. The assay is described as follows: Anticancer human tumor NCI-H196 cell line growth inhibition.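 On IC50: spheroids exposed to compounds for 7 days before readout.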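 On viability, T/C: spheroids exposed to compounds for 7 days before readout; 100% = DMSO vehicle control wells.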 Conditions: for viability, T/C: stronger effect = lower value. From the text: Multicellular complex tumor spheroid response to DNA repair inhibitors in combination with DNA-damaging drugs
This study explores the anticancer activities of DNA-damaging drugs and inhibitors of DNA damage repair, both as single agents and in combinations. Complex tumor spheroids comprised of malignant cells, endothelial cells and mesenchymal stem cells served as an in vitro model for human solid tumors. This model system incorporates physiologically relevant features and patient-derived or established malignant cell lines with clinically relevant genetic alterations from many tumor types. Twenty-six patient-derived or established malignant cell lines were evaluated representing sarcoma, melanoma, small cell lung cancer (SCLC), non-small cell lung cancer (NSCLC), as well as bladder, ovarian and pancreatic cancers. The concentration ranges selected for each drug and investigational agent were based upon clinically achievable concentrations if the clinical Cmax of the agent was known.
Compounds. The drugs and compounds olaparib (NSC753686), talazoparib (NSC767125), berzosertib (NSC777718), elimusertib (NSC800525), nedisertib (NSC802822), VX-984 (NSC792969), AZD-1390 (NSC803789), temozolomide (NSC362856), topotecan (NSC609699), trabectedin (NSC813783), staurosporine (NSC755774), and gemcitabine (NSC613327) were obtained from the National Cancer Institute (NCI) Developmental Therapeutics Program Chemical Repository. The FDA-approved anticancer drug set is available from the Developmental Therapeutics Program at https://dtp.cancer.gov/organization/dscb/obtaining/available_plates.htm. […] The stock solutions were prepared in dimethyl sulfoxide (DMSO, Sigma-Aldrich, St. Louis, MO, cat. D2650) at 400-fold the tested concentration and stored at -70 degrees C. Prior to their use, the stock solutions were diluted in fresh medium and the final DMSO concentration in the assay was 0.25% (v/v). All drugs and investigational agents were tested over a range starting from a high concentration at or near the clinical Cmax and decreasing in half-log increments. If the clinical Cmax for an agent had not been determined, the highest concentration tested was 10 microM.
Cell Lines. The patient-derived cancer cell (PDC) lines: 156681-154-R-J1-PDC, 283228-195-R-J1-PDC, 287954-098-R-J1-PDC, 292921-168-R-J2-PDC, 349418-098-R-PDC, 425362-245-T-J1-PDC, 556581-035-R-J1-PDC, and BL0293-F563-PDC were received from the NCI Patient-Derived Models Repository (PDMR, https://pdmr.cancer.gov). The established cell lines HS-SY-2 (RRID:CVCL_8719), MPNST, and SYO-1 (RRID:CVCL_7146) were obtained from the Sloan Kettering Institute. The alveolar soft parts sarcoma cell line ASPS-1 (RRID:CVCL_S738) was established at the NCI and grown from internal seed stocks. The following established cell lines were purchased from the American Type Culture Collection (ATCC, Manassas, VA): G-401 (ATCC, cat. CRL-1441, RRID:CVCL_0270), SW982 (ATCC, cat. HTB-93, RRID:CVCL_1734), VA-ES-BJ (ATCC, cat. CRL-2138, RRID:CVCL_1785), NCI-H719 (ATCC, cat. CRL-5837, RRID:CVCL_1582), NCI-H196 (ATCC, cat. CRL-5823, RRID:CVCL_1509), NCI-H841 (ATCC, cat. CRL-5845, RRID:CVCL_1595), NCI-H1618 (ATCC, cat. CRL-5879, RRID:CVCL_1480), NCI-H1876 (ATCC, cat. CRL-5902, RRID:CVCL_1503), DMS 114 (ATCC, cat. CRL-2066; RRID:CVCL_1174), NCI-H211 (ATCC, cat. CRL-5824; RRID:CVCL_1529), and SW 1271 (ATCC, cat. CRL-2177, RRID:CVCL_1716). The small cell lung cancer cell line COR-L88 was purchased from Sigma-Aldrich (cat. 92031917-1VL, RRID:CVCL_1141). The non-small cell lung cancer cell lines NCI-H226 (RRID:CVCL_1544) and NCI-H322M (RRID:CVCL_1557) were established at the NCI and grown from internal seed stocks. Pooled donor human umbilical vein endothelial cells (HUVEC, Lonza, cat. CC-2519) and human mesenchymal stem cells (hMSC, Lonza, cat. PT-2501) were purchased from Lonza (Walkersville, MD).
Cell Culture. All cells were maintained in an incubator at 37 degrees C and 5% CO2 with 95% humidity. […]

For orientation: viability, T/C means the ratio of treated to control. A word on the IC50: it is the concentration at which inhibition is half-maximal. `COc1ccc([C@@H](O)c2cc(-c3ncnc4cc(N5CCOCC5)ccc34)c(F)cc2Cl)nn1`: the viability, T/C was 96.5% and 98.3% and 102% (compound 0.0316 µM); 101% and 94.9% and 98.9% (compound 0.1 µM); 89.8% and 87.1% and 95.5% (compound 0.316 µM); 78.1% and 80.4% (compound 1 µM); 65% and 69% and 75.8% (compound 3.16 µM); 49.7% and 56.2% and 59.8% (compound 10 µM). The result (compound 1 µM) was inactive. For the same compound, for the setting “curve of compound”, the IC50 is > 10 µM.

As for `Cn1nnc2c(C(N)=O)ncn2c1=O`, the viability, T/C (compound 1 µM) is 95.3% [middle of 10 runs]; the viability, T/C (compound 3.16 µM) was 101% [middle of 10 runs]; the viability, T/C (compound 10 µM) was 104% [middle of 10 runs]; the viability, T/C (compound 31.6 µM) was 107% [middle of 10 runs]. The IC50 (compound alone, run of 11/07/2019) was > 100 µM.

As for `O=C(c1cc(Cc2n[nH]c(=O)c3ccccc23)ccc1F)N1CCN(C(=O)C2CC2)CC1`, the viability, T/C is 99.6% and 102% and 108% (compound 0.0949 µM); 100% and 93.2% and 96% (compound 0.3 µM); 90.1% and 99.8% and 99.6% (compound 0.949 µM); 98.9% and 93.9% and 98.2% (compound 3 µM); 92.9% and 89.8% and 95.1% (compound 9.49 µM); 85.1% (2×) and 69.1% (compound 30 µM). Also, where the note is “curve of compound”, the IC50 was > 30 µM.
